Laboratory results as given in US8252811B2, “Indazoles, benzothiazoles, and benzoisothiazoles, and preparation and uses thereof” (Memory Pharmaceuticals Corporation, priority 2002, dated 2012).

melting point	Structure (SMILES)
180 to 188 °C	Cl.O=C(N[C@@H]1CN2CCC1CC2)c1cccc2cn[nH]c12
285 °C (dec.)	Cl.O=C(N[C@H]1CN2CCC1CC2)c1ccc2ncsc2c1
170 to 180 °C	Cl.O=C(N[C@H]1CN2CCC1CC2)c1ccc2scnc2c1
166 to 176 °C	Cl.O=C(N[C@@H]1CN2CCC1CC2)c1ccc2scnc2c1
